Experimental data from the supplement of paper PMC10733146.

Key:
Test in all cases: viability relative to DMSO control (fraction); higher = less drug effect (more viable cells)
[1] = tested on: primary ALL patient cells (S048); settings: 48 h
Method in brief: (§1)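 Cells were incubated for 48 h at 37 °C and 5% CO2 in RPMI-1640 with penicillin/streptomycin, L-glutamine and human serum, at 4 × 10^4 cells per well in 384-well plates with compounds pre-plated at five concentrations, one well each. These were primary mononuclear tumour cells, fresh or cryopreserved, Ficoll-isolated from blood or bone marrow or obtained from processed lymph node. Viability values are CellTiter-Glo luminescence relative to the median of 16 inner DMSO wells.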

[2] = tested on: primary ALL patient cells (S088); settings: 48 h
Method in brief: as §1

[3] = tested on: primary AML patient cells (S006); settings: 48 h
Method in brief: as §1

[4] = tested on: primary AML patient cells (S007); settings: 2 µM; 48 h
Method in brief: as §1

[5] = tested on: primary AML patient cells (S055); settings: 48 h
Method in brief: as §1

[6] = tested on: primary AML patient cells (S056); settings: 48 h
Method in brief: as §1

[7] = tested on: primary AML patient cells (S060); settings: 48 h
Method in brief: as §1

[8] = tested on: primary AML patient cells (S071); settings: 48 h
Method in brief: as §1

[9] = tested on: primary AML patient cells (S072); settings: 48 h
Method in brief: as §1

[10] = tested on: primary AML patient cells (S079); settings: 48 h
Method in brief: as §1

[11] = tested on: primary AML patient cells (S089); settings: 48 h
Method in brief: as §1

[12] = tested on: primary CLL patient cells (S031); settings: 48 h
Method in brief: as §1

[13] = tested on: primary CLL patient cells (S043); settings: 48 h
Method in brief: as §1

[14] = tested on: primary DLBCL patient cells (S049); settings: 48 h
Method in brief: as §1

[15] = tested on: primary DLBCL patient cells (S076); settings: 48 h
Method in brief: as §1

[16] = tested on: primary DLBCL patient cells (S082); settings: 48 h
Method in brief: as §1

[17] = tested on: primary MCL patient cells (S063); settings: 48 h
Method in brief: as §1

[18] = tested on: primary T-NHL patient cells (S058); settings: 48 h
Method in brief: as §1

Structure (SMILES): CC(C)c1cc(-c2n[nH]c(=O)n2-c2ccc3c(ccn3C)c2)c(O)cc1O [Ganetespib]
- viability ([1]; 0.0032 µM): 0.9
- viability ([1]; 0.016 µM): 0.632
- viability ([1]; 0.08 µM): 0.517
- viability ([1]; 0.4 µM): 0.48
- viability ([1]; 2 µM): 0.453
- viability ([2]; 0.0032 µM): 0.823
- viability ([2]; 0.016 µM): 0.425
- viability ([2]; 0.08 µM): 0.274
- viability ([2]; 0.4 µM): 0.259
- viability ([2]; 2 µM): 0.267
- viability ([3]; 0.0032 µM): 0.846
- viability ([3]; 0.016 µM): 0.154
- viability ([3]; 0.08 µM): 0.134
- viability ([3]; 0.4 µM): 0.198
- viability ([3]; 2 µM): 0.186
- viability [4]: 0.0928
- viability ([5]; 0.0032 µM): 0.976
- viability ([5]; 0.016 µM): 0.928
- viability ([5]; 0.08 µM): 0.403
- viability ([5]; 0.4 µM): 0.368
- viability ([5]; 2 µM): 0.337
- viability ([6]; 0.0032 µM): 0.705
- viability ([6]; 0.016 µM): 0.203
- viability ([6]; 0.08 µM): 0.137
- viability ([6]; 0.4 µM): 0.176
- viability ([6]; 2 µM): 0.169
- viability ([7]; 0.0032 µM): 0.97
- viability ([7]; 0.016 µM): 1.05
- viability ([7]; 0.08 µM): 0.154
- viability ([7]; 0.4 µM): 0.118
- viability ([7]; 2 µM): 0.107
- viability ([8]; 0.0032 µM): 0.892
- viability ([8]; 0.016 µM): 0.357
- viability ([8]; 0.08 µM): 0.142
- viability ([8]; 0.4 µM): 0.167
- viability ([8]; 2 µM): 0.164
- viability ([9]; 0.0032 µM): 1.01
- viability ([9]; 0.016 µM): 0.884
- viability ([9]; 0.08 µM): 0.412
- viability ([9]; 0.4 µM): 0.39
- viability ([9]; 2 µM): 0.377
- viability ([10]; 0.0032 µM): 0.983
- viability ([10]; 0.016 µM): 0.825
- viability ([10]; 0.08 µM): 0.398
- viability ([10]; 0.4 µM): 0.352
- viability ([10]; 2 µM): 0.332
- viability ([11]; 0.0032 µM): 0.692
- viability ([11]; 0.016 µM): 0.371
- viability ([11]; 0.08 µM): 0.182
- viability ([11]; 0.4 µM): 0.254
- viability ([11]; 2 µM): 0.215
- viability ([12]; 0.0032 µM): 0.998
- viability ([12]; 0.016 µM): 0.873
- viability ([12]; 0.08 µM): 0.324
- viability ([12]; 0.4 µM): 0.267
- viability ([12]; 2 µM): 0.256
- viability ([13]; 0.0032 µM): 0.928
- viability ([13]; 0.016 µM): 0.917
- viability ([13]; 0.08 µM): 0.637
- viability ([13]; 0.4 µM): 0.535
- viability ([13]; 2 µM): 0.521
- viability ([14]; 0.0032 µM): 0.955
- viability ([14]; 0.016 µM): 0.989
- viability ([14]; 0.08 µM): 0.888
- viability ([14]; 0.4 µM): 0.54
- viability ([14]; 2 µM): 0.537
- viability ([15]; 0.0032 µM): 1.12
- viability ([15]; 0.016 µM): 0.904
- viability ([15]; 0.08 µM): 0.467
- viability ([15]; 0.4 µM): 0.407
- viability ([15]; 2 µM): 0.396
- viability ([16]; 0.0032 µM): 1.02
- viability ([16]; 0.016 µM): 1.12
- viability ([16]; 0.08 µM): 1.09
- viability ([16]; 0.4 µM): 1.04
- viability ([16]; 2 µM): 1.02
- viability ([17]; 0.0032 µM): 1
- viability ([17]; 0.016 µM): 1.05
- viability ([17]; 0.08 µM): 0.136
- viability ([17]; 0.4 µM): 0.0898
- viability ([17]; 2 µM): 0.0823
- viability ([18]; 0.0032 µM): 1.01
- viability ([18]; 0.016 µM): 0.978
- viability ([18]; 0.08 µM): 0.943
- viability ([18]; 0.4 µM): 1.14
- viability ([18]; 2 µM): 1.12
